For this test, the system named is HMOX1. Nature of the test: HMOX1 Protein Assay (immunostaining of HO-1 in NHLF cells, GE InCell 1000). Type of test: cell-based. To be noted: Homo sapiens, fold change above DMSO treated cells, 16 h; for fold induction at 5 µM: 5 μM compound; for fold induction at 3 µM: 3 μM compound (asterisk). The procedure, abridged:
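Fold induction of HO-1 over vehicle, normally at 5 μM compound (asterisk marks 3 μM), in 0.8% DMSO medium. Normal human lung fibroblasts were treated 16 h, then paraformaldehyde-fixed, anti-HO-1/Alexa 488 stained with Hoechst, and read by high-content imaging.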

Structures can show the parent of a compound that is named as a salt.

What is called fold induction is the signal under treatment as a multiple of the control signal. Read a low fold induction as little rise in signal. As to `Cn1c(Nc2nc3ccc(Cl)cc3s2)nc2cc(C(=O)NCC(=O)N3CC[C@H](N)C3)ccc21` [Example 411, 2-(6-Chloro-benzothiazol-2-ylamino)-1-methyl-1H-benzoimidazole-5-carboxylic acid [2-((S)-3-amino-pyrrolidin-1-yl)-2-oxo-ethyl]-amide hydrochloride], the fold induction at 5 µM amounted to 16.
As to `Cn1c(Nc2nc3ccc(Cl)cc3s2)nc2cc(C(=O)NCCCN3CCCC3)ccc21` [Example 354, 2-(6-Chloro-benzothiazol-2-ylamino)-1-methyl-1H-benzoimidazole-5-carboxylic acid (3-pyrrolidin-1-yl-propyl)-amide], the fold induction at 3 µM stood at 17.
With `Cn1c(Nc2nc3ccc(OC(F)(F)F)cc3s2)nc2ccc(CC(N)=O)cc21` [Example 202, 2-[1-Methyl-2-(6-trifluoromethoxy-benzothiazol-2-ylamino)-1H-benzoimidazol-6-yl]-acetamide], the fold induction at 5 µM came to 15.6.
The compound `Cn1c(Nc2nc3ccc(OC(F)(F)F)cc3s2)nc2cc(C(=O)NCC(=O)N3CCC(CO)CC3)ccc21` [Example 441, 1-Methyl-2-(6-trifluoromethoxy-benzothiazol-2-ylamino)-1H-benzoimidazole-5-carboxylic acid [2-(4-hydroxymethyl-piperidin-1-yl)-2-oxo-ethyl]-amide] returned a fold induction at 5 µM of 73.6.
On the same count and under the same terms, next, `CN(C)CC(=O)N1CCC(CNC(=O)c2ccc3c(c2)nc(Nc2nc4ccc(Cl)cc4s2)n3C)CC1` [Example 314, 2-(6-Chloro-benzothiazol-2-ylamino)-1-methyl-1H-benzoimidazole-5-carboxylic acid [1-(2-dimethylamino-acetyl)-piperidin-4-ylmethyl]-amide]: 79.7.
In turn, `Cn1c(Nc2nc3ccc(OC(F)(F)F)cc3s2)nc2cc(C(=O)NCC(=O)N3CCC(CF)CC3)ccc21` [Example 448, 1-Methyl-2-(6-trifluoromethoxy-benzothiazol-2-ylamino)-1H-benzoimidazole-5-carboxylic acid [2-(4-fluoromethyl-piperidin-1-yl)-2-oxo-ethyl]-amide] gave a fold induction at 5 µM of 36.7.
On the same count and under the same terms, next, `COC(=O)c1ccc2c(c1)nc(Nc1nc3ccc(C(F)(F)F)cc3s1)n2C` [Example 23, 1-Methyl-2-(6-trifluoromethyl-benzothiazol-2-ylamino)-1H-benzoimidazole-5-carboxylic acid methyl ester]: 4.11; `COCCn1c(Nc2nc3ccc(Cl)cc3s2)nc2cc(C(=O)NCC3CCN(C(=O)CN(C)C)CC3)ccc21` [Example 315, 2-(6-Chloro-benzothiazol-2-ylamino)-1-(2-methoxy-ethyl)-1H-benzoimidazole-5-carboxylic acid [1-(2-dimethylamino-acetyl)-piperidin-4-ylmethyl]-amide]: 75.7.
Same read-out and setting: next, `CNC(=O)c1ccc2c(c1)nc(Nc1nc3ccc(C(F)(F)F)cc3s1)n2C` [Example 84, 1-Methyl-2-(6-trifluoromethyl-benzothiazol-2-ylamino)-1H-benzoimidazole-5-carboxylic acid methylamide]: 19.
With `CNC(=O)c1ccc2c(c1)nc(Nc1nc3ccc(OC(F)(F)F)cc3s1)n2C(C)C` [Example 160, 1-Isopropyl-2-(6-trifluoromethoxy-benzothiazol-2-ylamino)-1H-benzoimidazole-5-carboxylic acid methylamide], the fold induction at 5 µM was 22.9.
Still for that read-out and setting: next, `CCN(CC)c1cc2c(cc1C(=O)OC)nc(Nc1nc3ccc(OC(F)(F)F)cc3s1)n2C` [Example 69, 6-Diethylamino-1-methyl-2-(6-trifluoromethoxy-benzothiazol-2-ylamino)-1H-benzoimidazole-5-carboxylic acid methyl ester]: 4.7.
In turn, `CN(C)CCCNC(=O)c1ccc2c(c1)nc(Nc1nc3ccc(C(F)(F)F)cc3s1)n2C` [Example 350, 1-Methyl-2-(6-trifluoromethyl-benzothiazol-2-ylamino)-1H-benzoimidazole-5-carboxylic acid (3-dimethylamino-propyl)-amide] registered a fold induction at 3 µM of 24.
`C[C@@H](O)CNC(=O)c1ccc2c(c1)nc(Nc1nc3ccc(OC(F)(F)F)cc3s1)n2C` [Example 51, 1-Methyl-2-(6-trifluoromethoxy-benzothiazol-2-ylamino)-1H-benzoimidazole-5-carboxylic acid ((R)-2-hydroxy-propyl)-amide]: the fold induction at 5 µM was found to be 9.9.
On the same count and under the same terms, then `CN1CC[C@H](NC(=O)c2ccc3c(c2)nc(Nc2nc4ccc(Cl)cc4s2)n3C)C1` [Example 317, 2-(6-Chloro-benzothiazol-2-ylamino)-1-methyl-1H-benzoimidazole-5-carboxylic acid ((S)-1-methyl-pyrrolidin-3-yl)amide], with 16.3; and `COC(=O)c1cc2nc(Nc3nc4ccc(OC(F)(F)F)cc4s3)n(C)c2cc1F` [Example 40, 6-Fluoro-1-methyl-2-(6-trifluoromethoxy-benzothiazol-2-ylamino)-1H-benzoimidazole-5-carboxylic acid methyl ester], with 11.8.
Same read-out and setting: then `Cn1c(Nc2nc3ccc(OC(F)(F)F)cc3s2)nc2cc(C(=O)NCCOCCCF)ccc21` [Example 247, 1-Methyl-2-(6-trifluoromethoxy-benzothiazol-2-ylamino)-1H-benzoimidazole-5-carboxylic acid [2-(3-fluoro-propoxy)-ethyl]-amide], with 28.3.
Still for that read-out and setting: then `CC(O)COCCNC(=O)c1ccc2c(c1)nc(Nc1nc3ccc(OC(F)(F)F)cc3s1)n2C` (stereo not drawn) [Example 244, 1-Methyl-2-(6-trifluoromethoxy-benzothiazol-2-ylamino)-1H-benzoimidazole-5-carboxylic acid [2-(2-hydroxy-propoxy)-ethyl]-amide], with 28.
With `CNCCNC(=O)c1ccc2c(c1)nc(Nc1nc3ccc(OC(F)(F)F)cc3s1)n2C` [Example 105, 1-Methyl-2-(6-trifluoromethoxy-benzothiazol-2-ylamino)-1H-benzoimidazole-5-carboxylic acid (2-methylamino-ethyl)-amide], the fold induction at 5 µM worked out at 17.5.
Compound `Cn1c(Nc2nc3ccc(Cl)cc3s2)nc2cc(C(=O)NCCC(=O)N3CCOCC3)ccc21` [Example 373, 2-(6-Chloro-benzothiazol-2-ylamino)-1-methyl-1H-benzoimidazole-5-carboxylic acid (3-morpholin-4-yl-3-oxo-propyl)-amide] had a fold induction at 3 µM of 32.
For the compound `CN(C)C1CCN(C(=O)CNC(=O)c2ccc3c(c2)nc(Nc2nc4ccc(Cl)cc4s2)n3C)CC1` [Example 456, 2-(6-Chloro-benzothiazol-2-ylamino)-1-methyl-1H-benzoimidazole-5-carboxylic acid [2-(4-dimethylamino-piperidin-1-yl)-2-oxo-ethyl]-amide], the fold induction at 5 µM turned out to be 67.3.
Compound `Cn1c(Nc2nc3ccc(Cl)cc3s2)nc2cc(C(=O)NCCS(=O)(=O)CCO)ccc21` [Example 278, 2-(6-Chloro-benzothiazol-2-ylamino)-1-methyl-1H-benzoimidazole-5-carboxylic acid [2-(2-hydroxy-ethanesulfonyl)-ethyl]-amide] returned a fold induction at 3 µM of 36.5.
As for `COCCn1c(Nc2nc3ccc(OC(F)(F)F)cc3s2)nc2cc(C(=O)O)ccc21` [Example 166, 1-(2-Methoxy-ethyl)-2-(6-trifluoromethoxy-benzothiazol-2-ylamino)-1H-benzoimidazole-5-carboxylic acid], the fold induction at 5 µM turned out to be 22.4.
In turn, `Cn1c(Nc2nc3ccc(OC(F)(F)F)cc3s2)nc2cc(C(=O)NC[C@H]3CC[C@H](CO)CC3)ccc21` [Example 254, 1-Methyl-2-(6-trifluoromethoxy-benzothiazol-2-ylamino)-1H-benzoimidazole-5-carboxylic acid (trans-4-hydroxymethyl-cyclohexylmethyl)-amide] yielded a fold induction at 5 µM of 47.4.
Still for that read-out and setting: next, `COC(=O)c1ccc2c(c1)nc(Nc1nc3cc(OC(F)(F)F)ccc3s1)n2C` [Example 99, 1-Methyl-2-(5-trifluoromethoxy-benzothiazol-2-ylamino)-1H-benzoimidazole-5-carboxylic acid methyl ester]: 8.5.
Consider `CNC(=O)c1ccc2c(c1)nc(Nc1nc3cc(F)ccc3s1)n2C` [Example 122, 2-(5-Fluoro-benzothiazol-2-ylamino)-1-methyl-1H-benzimidazole-5-carboxylic acid methylamide], for which the fold induction at 5 µM stood at 26.1.
On to `CC(=O)c1ccc2c(c1)nc(Nc1nc3ccc(OC(F)(F)F)cc3s1)n2C` [Example 200, 1-[1-Methyl-2-(6-trifluoromethoxy-benzothiazol-2-ylamino)-1H-benzoimidazol-5-yl]-ethanone], for which the fold induction at 5 µM came to 22.9.
For the compound `CCCNC(=O)c1ccc2c(c1)nc(Nc1nc3ccc(OC(F)(F)F)cc3s1)n2C` [Example 12, 1-Methyl-2-(6-trifluoromethoxy-benzothiazol-2-ylamino)-1H-benzoimidazole-5-carboxylic acid propylamide], the fold induction at 5 µM is 16.2.
Still for that read-out and setting: then `COCCNC(=O)c1ccc2c(c1)nc(Nc1nc3cc(OC(F)(F)F)ccc3s1)n2C` [Example 116, 1-Methyl-2-(5-trifluoromethoxy-benzothiazol-2-ylamino)-1H-benzimidazole-5-carboxylic acid (2-methoxy-ethyl)-amide], with 22.3.
Turning to `Cn1c(Nc2nc3ccc(OC(F)(F)F)cc3s2)nc2cc(C(=O)NCC3COCCO3)ccc21` (stereo not drawn) [Example 49, 1-Methyl-2-(6-trifluoromethoxy-benzothiazol-2-ylamino)-1H-benzoimidazole-5-carboxylic acid ([1,4]dioxan-2-ylmethyl)-amide], the fold induction at 5 µM turned out to be 23.1.
`Cn1c(Nc2nc3ccc(OC(F)(F)F)cc3s2)nc2cc(C(=O)NC3CCCN(C(=O)OC(C)(C)C)C3)ccc21` (stereo not drawn) [Example 94, 3-{[1-Methyl-2-(6-trifluoromethoxy-benzothiazol-2-ylamino)-1H-benzoimidazole-5-carbonyl]-amino}-piperidine-1-carboxylic acid tert-butyl ester] registered a fold induction at 5 µM of 1.2.

The values are drawn from patent US8759535B2, “Substituted fused imidazole derivatives, pharmaceutical compositions, and methods of use thereof” (High Point Pharmaceuticals, LLC, priority 2010, dated 2014).
